Measured values reported in US7074789B2, “Kinase inhibitors” (Amgen Inc., priority 1999, dated 2006).
pIC50: −log10 of the molar value.

Assays:
Type in all cases: biochemical
Zap-70 = target: T1, Zap-70 (Homo sapiens, UniProt P43403); experiment: Kinase inhibition assay (33P transfer), Zap-70; conditions: for pIC50: read-out: Zap-1
T1 construct: Kinases are expressed as either kinase domains or full length constructs; made in house
T1 sequence (P43403 1-619): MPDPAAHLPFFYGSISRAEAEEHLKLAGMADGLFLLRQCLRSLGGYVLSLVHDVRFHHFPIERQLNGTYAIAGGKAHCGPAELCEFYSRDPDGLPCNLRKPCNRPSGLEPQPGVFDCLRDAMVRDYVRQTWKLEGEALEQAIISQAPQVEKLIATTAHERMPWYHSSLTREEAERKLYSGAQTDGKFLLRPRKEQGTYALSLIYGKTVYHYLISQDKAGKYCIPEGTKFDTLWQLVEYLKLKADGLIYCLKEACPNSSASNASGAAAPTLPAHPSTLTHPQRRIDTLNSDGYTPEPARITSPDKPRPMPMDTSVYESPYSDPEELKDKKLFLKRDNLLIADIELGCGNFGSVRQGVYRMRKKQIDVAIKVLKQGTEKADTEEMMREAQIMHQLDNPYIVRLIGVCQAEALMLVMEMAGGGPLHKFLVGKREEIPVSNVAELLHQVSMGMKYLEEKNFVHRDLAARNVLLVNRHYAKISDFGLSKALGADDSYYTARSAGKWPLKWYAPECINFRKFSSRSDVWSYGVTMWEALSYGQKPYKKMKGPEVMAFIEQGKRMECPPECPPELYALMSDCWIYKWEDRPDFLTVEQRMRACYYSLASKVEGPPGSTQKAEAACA
How it was run: (§1)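 Enzyme activity is taken as the amount of 33PO4 moved from ATP onto poly(Glu, Tyr) 4:1 or poly(Arg, Ser) 3:1 fixed to the plate surface. Unbound label is removed with 0.5% phosphoric acid before scintillation counting.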

c-Met = target: T2, c-Met (Homo sapiens, UniProt P08581); experiment: Kinase inhibition assay (33P transfer), c-Met; conditions: Table 2, kinase inhibition class; for pIC50: read-out: Met-1
T2 construct: Kinases are expressed as either kinase domains or full length constructs; made in house
T2 sequence (P08581 25-1390): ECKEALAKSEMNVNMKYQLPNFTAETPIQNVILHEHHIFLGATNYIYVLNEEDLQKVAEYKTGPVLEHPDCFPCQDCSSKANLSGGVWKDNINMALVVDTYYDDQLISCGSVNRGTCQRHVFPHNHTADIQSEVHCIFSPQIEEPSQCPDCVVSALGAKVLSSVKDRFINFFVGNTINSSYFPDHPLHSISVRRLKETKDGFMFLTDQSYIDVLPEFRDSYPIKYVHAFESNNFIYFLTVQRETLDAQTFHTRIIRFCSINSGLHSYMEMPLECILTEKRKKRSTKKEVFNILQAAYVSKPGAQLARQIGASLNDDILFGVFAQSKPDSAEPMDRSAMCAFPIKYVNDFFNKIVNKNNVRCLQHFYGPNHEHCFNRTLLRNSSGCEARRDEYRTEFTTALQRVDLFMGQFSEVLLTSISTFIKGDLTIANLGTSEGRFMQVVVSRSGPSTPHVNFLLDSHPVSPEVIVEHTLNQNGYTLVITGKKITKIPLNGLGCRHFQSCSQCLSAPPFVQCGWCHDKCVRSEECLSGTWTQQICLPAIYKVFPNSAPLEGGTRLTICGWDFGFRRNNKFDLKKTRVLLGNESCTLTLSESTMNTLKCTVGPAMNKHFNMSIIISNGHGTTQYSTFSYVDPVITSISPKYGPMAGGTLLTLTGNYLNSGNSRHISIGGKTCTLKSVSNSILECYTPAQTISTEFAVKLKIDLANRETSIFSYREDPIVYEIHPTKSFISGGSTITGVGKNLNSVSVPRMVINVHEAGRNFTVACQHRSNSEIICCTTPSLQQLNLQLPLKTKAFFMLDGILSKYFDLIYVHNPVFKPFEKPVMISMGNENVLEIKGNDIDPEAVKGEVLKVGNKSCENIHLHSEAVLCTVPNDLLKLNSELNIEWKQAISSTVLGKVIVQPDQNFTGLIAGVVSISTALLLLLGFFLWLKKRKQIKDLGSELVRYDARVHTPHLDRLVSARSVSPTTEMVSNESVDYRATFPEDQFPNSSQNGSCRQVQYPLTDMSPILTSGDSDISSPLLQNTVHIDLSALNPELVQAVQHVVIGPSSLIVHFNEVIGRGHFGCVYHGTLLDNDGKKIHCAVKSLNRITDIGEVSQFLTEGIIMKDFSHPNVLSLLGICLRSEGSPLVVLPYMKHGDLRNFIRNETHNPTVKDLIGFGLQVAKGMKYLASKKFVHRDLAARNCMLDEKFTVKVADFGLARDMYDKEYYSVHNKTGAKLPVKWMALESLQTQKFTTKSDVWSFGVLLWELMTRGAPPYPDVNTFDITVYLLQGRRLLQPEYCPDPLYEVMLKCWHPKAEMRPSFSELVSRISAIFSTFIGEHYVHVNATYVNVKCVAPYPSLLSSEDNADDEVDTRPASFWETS
How it was run: (§2)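 Using immobilised substrate copolymers (poly(Glu,Tyr) 4:1; poly(Arg,Ser) 3:1) and [33P]ATP, purified fusion kinases were allowed to react; plates were then rinsed in 0.5% phosphoric acid and counted in a scintillation detector. Half-maximal inhibition of label transfer defines IC50.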

AKT = target: T3, AKT (Homo sapiens, UniProt Q9Y243); experiment: Kinase inhibition assay (33P transfer), AKT; conditions: Table 2, kinase inhibition class; for pIC50: read-out: AKT3-1
T3 construct: Kinases are expressed as either kinase domains or full length constructs; made in house
T3 sequence (Q9Y243 whole entry, the tested form may be a part): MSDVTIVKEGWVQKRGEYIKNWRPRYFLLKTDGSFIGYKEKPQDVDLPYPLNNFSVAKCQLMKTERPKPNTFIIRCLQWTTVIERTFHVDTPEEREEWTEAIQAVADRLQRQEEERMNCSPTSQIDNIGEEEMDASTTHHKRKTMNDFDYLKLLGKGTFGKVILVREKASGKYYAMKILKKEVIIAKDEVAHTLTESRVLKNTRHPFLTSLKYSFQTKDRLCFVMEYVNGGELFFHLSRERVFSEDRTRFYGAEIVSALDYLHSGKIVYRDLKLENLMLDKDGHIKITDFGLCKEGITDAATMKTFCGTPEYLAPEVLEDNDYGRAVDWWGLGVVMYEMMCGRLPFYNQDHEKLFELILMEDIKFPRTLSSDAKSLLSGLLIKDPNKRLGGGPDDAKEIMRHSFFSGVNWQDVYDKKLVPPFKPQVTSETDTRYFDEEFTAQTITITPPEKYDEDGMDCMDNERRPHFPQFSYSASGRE
How it was run: as §1

IGFR-1 = target: T4, IGFR-1 (Homo sapiens, UniProt P08069); experiment: Kinase inhibition assay, IGFR-1 (Table 2); conditions: Table 2, kinase inhibition class
T4 construct: Kinases are expressed as either kinase domains or full length constructs; made in house
T4 sequence (P08069 31-1367): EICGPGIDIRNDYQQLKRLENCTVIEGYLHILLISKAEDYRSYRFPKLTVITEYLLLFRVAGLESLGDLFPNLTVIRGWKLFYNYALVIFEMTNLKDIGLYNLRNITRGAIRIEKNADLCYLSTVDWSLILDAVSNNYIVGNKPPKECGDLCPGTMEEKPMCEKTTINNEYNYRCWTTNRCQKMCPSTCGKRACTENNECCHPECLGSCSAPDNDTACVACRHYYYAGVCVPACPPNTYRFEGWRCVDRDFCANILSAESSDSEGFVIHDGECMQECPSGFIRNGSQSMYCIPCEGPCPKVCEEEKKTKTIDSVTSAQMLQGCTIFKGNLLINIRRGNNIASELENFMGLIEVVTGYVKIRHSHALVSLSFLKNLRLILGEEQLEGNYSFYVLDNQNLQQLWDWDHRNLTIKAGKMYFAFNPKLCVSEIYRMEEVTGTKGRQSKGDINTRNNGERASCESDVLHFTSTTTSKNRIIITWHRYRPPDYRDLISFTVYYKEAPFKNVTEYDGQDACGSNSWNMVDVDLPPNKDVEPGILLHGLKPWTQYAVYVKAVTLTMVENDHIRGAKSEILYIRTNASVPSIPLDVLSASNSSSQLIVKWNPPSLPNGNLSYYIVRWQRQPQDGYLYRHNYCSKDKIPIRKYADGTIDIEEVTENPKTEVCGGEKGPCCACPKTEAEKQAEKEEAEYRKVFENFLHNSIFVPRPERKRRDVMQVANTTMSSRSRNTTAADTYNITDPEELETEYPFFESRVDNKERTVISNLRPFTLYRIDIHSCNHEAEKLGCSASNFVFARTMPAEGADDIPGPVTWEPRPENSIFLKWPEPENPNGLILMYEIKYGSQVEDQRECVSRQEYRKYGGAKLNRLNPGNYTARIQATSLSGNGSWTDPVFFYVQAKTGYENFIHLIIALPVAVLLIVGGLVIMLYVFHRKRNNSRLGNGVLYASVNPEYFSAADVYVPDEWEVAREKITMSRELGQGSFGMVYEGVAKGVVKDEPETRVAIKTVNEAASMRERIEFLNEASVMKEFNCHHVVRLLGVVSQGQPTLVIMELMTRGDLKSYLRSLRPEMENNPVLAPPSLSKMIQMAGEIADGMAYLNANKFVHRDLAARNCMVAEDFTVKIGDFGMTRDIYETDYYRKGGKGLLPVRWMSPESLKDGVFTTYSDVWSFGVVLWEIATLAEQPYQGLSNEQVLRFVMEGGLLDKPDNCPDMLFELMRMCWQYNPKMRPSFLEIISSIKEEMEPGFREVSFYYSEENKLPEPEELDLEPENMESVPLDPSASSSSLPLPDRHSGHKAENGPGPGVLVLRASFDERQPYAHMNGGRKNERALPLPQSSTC

Lck = target: T5, Lck (Homo sapiens, UniProt P06239); experiment: Kinase inhibition assay (33P transfer), Lck; conditions: for pIC50: read-out: Lck-1
T5 construct: Kinases are expressed as either kinase domains or full length constructs; made in house
T5 sequence (P06239 whole entry, species assumed, the tested form may be a part): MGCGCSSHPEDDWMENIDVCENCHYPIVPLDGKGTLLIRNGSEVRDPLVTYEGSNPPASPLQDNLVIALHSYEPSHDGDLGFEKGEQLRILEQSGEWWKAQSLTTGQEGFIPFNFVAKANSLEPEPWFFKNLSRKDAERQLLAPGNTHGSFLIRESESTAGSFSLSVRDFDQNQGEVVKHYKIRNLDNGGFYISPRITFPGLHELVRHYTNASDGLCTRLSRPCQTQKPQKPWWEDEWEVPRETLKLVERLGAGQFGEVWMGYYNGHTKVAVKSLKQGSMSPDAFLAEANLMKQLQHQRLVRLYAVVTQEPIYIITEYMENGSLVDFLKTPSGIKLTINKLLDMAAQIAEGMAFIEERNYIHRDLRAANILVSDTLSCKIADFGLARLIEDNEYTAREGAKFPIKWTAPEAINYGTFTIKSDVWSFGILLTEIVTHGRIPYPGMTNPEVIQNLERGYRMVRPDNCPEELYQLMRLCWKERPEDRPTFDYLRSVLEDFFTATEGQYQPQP
How it was run: as §1

Itk = target: T6, Itk (Homo sapiens, UniProt Q08881); experiment: Kinase inhibition assay (33P transfer), Itk; conditions: for pIC50: read-out: Itk-1
T6 construct: Kinases are expressed as either kinase domains or full length constructs; made in house
T6 sequence (Q08881 1-620): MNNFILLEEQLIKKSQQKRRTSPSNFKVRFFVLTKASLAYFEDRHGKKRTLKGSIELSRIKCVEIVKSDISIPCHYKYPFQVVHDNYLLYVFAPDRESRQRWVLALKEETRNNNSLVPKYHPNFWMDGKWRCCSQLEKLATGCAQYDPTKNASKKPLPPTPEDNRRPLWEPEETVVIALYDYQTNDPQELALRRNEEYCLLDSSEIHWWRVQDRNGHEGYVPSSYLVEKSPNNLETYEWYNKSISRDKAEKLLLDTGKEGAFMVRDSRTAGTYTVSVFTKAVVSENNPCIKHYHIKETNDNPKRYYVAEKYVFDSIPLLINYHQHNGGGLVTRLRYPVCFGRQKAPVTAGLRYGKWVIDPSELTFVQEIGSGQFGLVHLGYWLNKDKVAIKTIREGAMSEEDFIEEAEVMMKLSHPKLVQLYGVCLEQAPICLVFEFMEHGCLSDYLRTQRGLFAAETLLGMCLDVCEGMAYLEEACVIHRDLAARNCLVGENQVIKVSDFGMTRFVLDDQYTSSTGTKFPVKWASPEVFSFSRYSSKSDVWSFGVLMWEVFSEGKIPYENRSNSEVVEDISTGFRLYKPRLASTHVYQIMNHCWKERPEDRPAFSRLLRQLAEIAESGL
How it was run: as §2

EGFR = target: T7, EGFR (Homo sapiens, UniProt P00533); experiment: Kinase inhibition assay (33P transfer), EGFR; conditions: Table 2, kinase inhibition class; for pIC50: read-out: EGFR-1
T7 construct: Kinases are expressed as either kinase domains or full length constructs; made in house
How it was run: as §2

Kdr = target: T8, Kdr (Homo sapiens, UniProt P35968); experiment: Kinase inhibition assay (33P transfer), Kdr; conditions: for pIC50: read-out: KDR-1
T8 construct: Kinases are expressed as either kinase domains or full length constructs; made in house
T8 sequence (P35968 20-1356, species assumed): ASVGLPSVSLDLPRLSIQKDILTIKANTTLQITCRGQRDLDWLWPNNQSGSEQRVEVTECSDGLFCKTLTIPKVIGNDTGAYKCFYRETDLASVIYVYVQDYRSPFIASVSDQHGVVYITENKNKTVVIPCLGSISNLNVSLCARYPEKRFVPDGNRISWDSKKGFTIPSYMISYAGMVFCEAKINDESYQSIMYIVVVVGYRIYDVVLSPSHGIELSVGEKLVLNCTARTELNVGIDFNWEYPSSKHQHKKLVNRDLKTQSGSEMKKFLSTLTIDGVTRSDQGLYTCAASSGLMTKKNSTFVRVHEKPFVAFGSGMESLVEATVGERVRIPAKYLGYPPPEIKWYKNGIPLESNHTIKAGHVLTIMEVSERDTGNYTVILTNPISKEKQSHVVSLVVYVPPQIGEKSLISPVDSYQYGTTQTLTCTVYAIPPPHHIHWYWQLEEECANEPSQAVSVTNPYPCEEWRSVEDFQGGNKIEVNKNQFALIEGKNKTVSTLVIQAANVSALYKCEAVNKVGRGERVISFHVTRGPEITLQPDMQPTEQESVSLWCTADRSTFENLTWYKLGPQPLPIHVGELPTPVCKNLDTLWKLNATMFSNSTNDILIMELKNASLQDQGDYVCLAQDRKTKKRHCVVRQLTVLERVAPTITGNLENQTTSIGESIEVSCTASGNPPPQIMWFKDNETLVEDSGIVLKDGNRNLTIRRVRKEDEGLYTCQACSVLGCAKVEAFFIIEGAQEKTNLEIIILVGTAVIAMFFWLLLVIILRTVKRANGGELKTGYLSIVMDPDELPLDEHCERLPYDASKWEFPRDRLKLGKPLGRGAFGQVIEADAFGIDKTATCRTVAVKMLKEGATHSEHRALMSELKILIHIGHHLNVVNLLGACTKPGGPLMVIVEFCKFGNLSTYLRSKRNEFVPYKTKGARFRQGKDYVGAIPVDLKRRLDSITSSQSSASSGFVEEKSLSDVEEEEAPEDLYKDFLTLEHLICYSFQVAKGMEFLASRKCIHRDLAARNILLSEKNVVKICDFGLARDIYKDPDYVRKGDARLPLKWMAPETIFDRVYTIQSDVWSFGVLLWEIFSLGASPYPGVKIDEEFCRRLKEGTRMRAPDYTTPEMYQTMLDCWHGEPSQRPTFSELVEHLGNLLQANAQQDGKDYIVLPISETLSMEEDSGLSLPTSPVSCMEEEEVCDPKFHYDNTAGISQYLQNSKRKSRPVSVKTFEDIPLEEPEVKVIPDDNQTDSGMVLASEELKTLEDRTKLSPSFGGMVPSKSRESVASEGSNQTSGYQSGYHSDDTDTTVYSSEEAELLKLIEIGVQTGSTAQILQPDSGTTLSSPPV
How it was run: as §1

PDGFRB = target: T9, PDGFRB (Homo sapiens, UniProt P09619); experiment: Kinase inhibition assay (33P transfer), PDGFRB; conditions: for pIC50: read-out: PDGFRB-1
T9 construct: Kinases are expressed as either kinase domains or full length constructs; made in house

ErbB2 = target: T10, ErbB2 (Homo sapiens, UniProt P04626); experiment: Kinase inhibition assay (33P transfer), ErbB2; conditions: for pIC50: read-out: ErbB2-2
T10 construct: Kinases are expressed as either kinase domains or full length constructs; made in house
How it was run: as §2

SMILES | pIC50 (Zap-70) | pIC50 (c-Met) | pIC50 (AKT) | pIC50 (IGFR-1) | pIC50 (Lck) | pIC50 (Itk) | pIC50 (EGFR) | pIC50 (Kdr) | pIC50 (PDGFRB) | pIC50 (ErbB2) | Zap-1 (Zap-70) | Met-1 (c-Met) | AKT3-1 (AKT) | IGFR-1 (IGFR-1) | Lck-1 (Lck) | Itk-1 (Itk) | EGFR-1 (EGFR) | KDR-1 (Kdr) | PDGFRB-1 (PDGFRB) | ErbB2-2 (ErbB2)
CN(c1ccccc1)c1ncnc(-n2c(N)nc3ccccc32)n1 [Compound 662] | < 4.85 | < 4.85 | < 4.85 | 4.85 to 4.96 | 4.96 to 5.12 | < 4.85 | 4.96 to 5.12 | 5.12 to 5.90 | < 4.85 | 4.96 to 5.12 |  |  |  |  |  |  |  |  |  | 
COc1ccc(N(C)c2ncnc(-n3c(N)nc4ccccc43)n2)cc1 [Compound 663] | < 4.89 | < 4.89 | < 4.89 | < 4.89 | < 4.89 | < 4.89 | < 4.89 | 5.00 to 5.16 | < 4.89 | < 4.89 |  |  |  |  |  |  |  |  |  | 
CN(c1cccc(Cl)c1)c1ncnc(-n2c(N)nc3ccccc32)n1 [Compound 664] | 5.00 to 5.17 | 5.17 to 5.94 | 5.00 to 5.17 | 5.17 to 5.94 | 5.17 to 5.94 | 5.00 to 5.17 | 5.17 to 5.94 | 5.17 to 5.94 | 4.89 to 5.00 | 5.17 to 5.94 |  |  |  |  |  |  |  |  |  | 
Nc1ncnc(Nc2ccc3c(cnn3Cc3ccccc3)c2)n1 [Compound 665] | < 4.85 | < 4.85 | < 4.85 | < 4.85 | < 4.85 | < 4.85 | 5.12 to 5.90 | < 4.85 | < 4.85 | 5.12 to 5.90 |  |  |  |  |  |  |  |  |  | 
Cc1cccc(Nc2ncnc(N(C)c3cccc(Br)c3)n2)c1 [Compound 666] | < 4.92 | 5.02 to 5.19 | < 4.92 | < 4.92 | 5.02 to 5.19 | < 4.92 | > 5.97 | < 4.92 | 4.92 to 5.02 | 5.19 to 5.97 |  |  |  |  |  |  |  |  |  | 
CN(c1cccc(Cl)c1)c1ncnc(Cl)n1 [Compound 701, N-methyl-2-chloro-4(3-chloroanilino)-1,3,5-triazine] | < 4.75 | < 4.75 | < 4.75 | < 4.75 | < 4.75 | < 4.75 | < 4.75 | < 4.75 | < 4.75 | < 4.75 |  |  |  |  |  |  |  |  |  | 
CN(c1cccc(Cl)c1)c1ncnc(N(C)c2cccc(Cl)c2)n1 [Compound 702] | < 4.90 | < 4.90 | < 4.90 | < 4.90 | < 4.90 | < 4.90 | 5.18 to 5.95 | < 4.90 | < 4.90 | < 4.90 |  |  |  |  |  |  |  |  |  | 
CN(c1cccc(Cl)c1)c1ncnc(Nc2ccc(F)c(Cl)c2)n1 [Compound 703] | < 4.91 | < 4.91 | < 4.91 | < 4.91 | < 4.91 | < 4.91 | > 5.96 | < 4.91 | < 4.91 | 4.91 to 5.02 |  |  |  |  |  |  |  |  |  | 
CN(c1cccc(Cl)c1)c1ncnc(Nc2ccc(CC(=O)O)cc2)n1 [Compound 705] | < 4.91 | < 4.91 | < 4.91 | < 4.91 | < 4.91 | < 4.91 | > 5.97 | 4.91 to 5.02 | < 4.91 | 5.19 to 5.97 |  |  |  |  |  |  |  |  |  | 
CN(c1cccc(Cl)c1)c1ncnc(Nc2cccc(CC(=O)O)c2)n1 [Compound 706] | < 4.91 | 5.19 to 5.97 | < 4.91 | < 4.91 | < 4.91 | < 4.91 | > 5.97 | > 5.97 | 5.02 to 5.19 | > 5.97 |  |  |  |  |  |  |  |  |  | 
CN(c1cccc(Cl)c1)c1ncnc(Nc2cccc(Br)c2)n1 [Compound 707] | < 4.94 | < 4.94 | < 4.94 | < 4.94 | < 4.94 | < 4.94 | > 5.99 | < 4.94 | < 4.94 | < 4.94 |  |  |  |  |  |  |  |  |  | 
CN(c1cccc(Cl)c1)c1ncnc(Nc2ccc(Cl)c(Cl)c2)n1 [Compound 708] | 5.04 to 5.20 | < 4.93 | < 4.93 | < 4.93 | < 4.93 | < 4.93 | < 4.93 | < 4.93 | < 4.93 | < 4.93 |  |  |  |  |  |  |  |  |  | 
Cc1cccc(Nc2ncnc(N(C)c3cccc(Cl)c3)n2)c1 [Compound 709] | < 4.86 | 5.13 to 5.91 | < 4.86 | < 4.86 | 4.97 to 5.13 | < 4.86 | > 5.91 | < 4.86 | 4.97 to 5.13 | 5.13 to 5.91 |  |  |  |  |  |  |  |  |  | 
COc1cc(Nc2ncnc(N(C)c3ccc(F)c(Cl)c3)n2)cc(OC)c1OC [Compound 710] | < 4.97 | 5.24 to 6.02 | < 4.97 | 5.08 to 5.24 | > 6.02 | < 4.97 | > 6.02 | 5.24 to 6.02 | 5.24 to 6.02 | > 6.02 |  |  |  |  |  |  |  |  |  | 
COc1cc(Nc2ncnc(N(C)c3cccc(Cl)c3)n2)cc(OC)c1 [Compound 712] | < 4.92 | 5.19 to 5.97 | < 4.92 | < 4.92 | 5.19 to 5.97 | < 4.92 | > 5.97 | 5.19 to 5.97 | 5.19 to 5.97 | > 5.97 |  |  |  |  |  |  |  |  |  | 
CN(c1ccc(F)c(Cl)c1)c1ncnc(Nc2cccc(Br)c2)n1 [Compound 713] | < 4.96 | < 4.96 | < 4.96 | < 4.96 | < 4.96 | < 4.96 | < 4.96 | 5.23 to 6.01 | < 4.96 | < 4.96 |  |  |  |  |  |  |  |  |  | 
CN(c1cccc(Cl)c1)c1ncnc(Nc2ccc3[nH]ccc3c2)n1 [Compound 714] | < 4.89 | 5.16 to 5.94 | < 4.89 | 5.16 to 5.94 | 5.16 to 5.94 | < 4.89 | > 5.94 | 5.16 to 5.94 | 5.16 to 5.94 | > 5.94 |  |  |  |  |  |  |  |  |  | 
Fc1ccc(Nc2ncnc(Nc3ccc4[nH]ccc4c3)n2)cc1Cl [Compound 715] |  |  |  |  |  |  |  |  |  |  | C (C>2.4 and <3.5 ug/mL) | C (C>2.4 and <3.5 ug/mL) | D (D>3.5 and <4.5 ug/mL) | B (B>0.4 and <2.4 ug/mL) | E (E>4.5 ug/mL) | D (D>3.5 and <4.5 ug/mL) | A (A<0.4 ug/mL) | B (B>0.4 and <2.4 ug/mL) | B (B>0.4 and <2.4 ug/mL) | B (B>0.4 and <2.4 ug/mL)
Fc1ccc(Nc2ncnc(Nc3ccc4[nH]ncc4c3)n2)cc1Cl [Compound 717] | 5.17 to 5.95 | 5.17 to 5.95 | < 4.90 | 5.17 to 5.95 | 5.17 to 5.95 | 5.17 to 5.95 | > 5.95 | 5.17 to 5.95 | > 5.95 | 5.17 to 5.95 |  |  |  |  |  |  |  |  |  | 
CN(c1cccc(Cl)c1)c1ncnc(Nc2ccc3cn[nH]c3c2)n1 [Compound 718] | 4.89 to 5.00 | < 4.89 | 4.89 to 5.00 | < 4.89 | < 4.89 | < 4.89 | > 5.94 | < 4.89 | 5.00 to 5.17 | < 4.89 |  |  |  |  |  |  |  |  |  | 
